# Measured values from PubChem BioAssay AID1745844 (Carcinogenic Potency Database (CPDB), 2022).
# Active and inactive are the calls of the source. No rule for the calls is given here.
# System: rodent lifetime carcinogenesis bioassay, tumor incidence TD50
# Assay: carcinogenic potency in animals, long-term in vivo studies, CPDB compilation (AID 1745844)
# [1] = mouse, strain B6AKF1, females, oral dosing, site: any site (literature study), lesion: several types, types named in the paper, dosed 76 weeks, study length 76 weeks
# [2] = mouse, strain B6AKF1, females, oral dosing, site: liver, lesion: hepatoma, dosed 76 weeks, study length 76 weeks
# [3] = mouse, strain B6AKF1, females, oral dosing, site: lung, lesion: adenoma, dosed 76 weeks, study length 76 weeks
# [4] = mouse, strain B6AKF1, males, oral dosing, site: any site (literature study), lesion: several types, types named in the paper, dosed 76 weeks, study length 76 weeks
# [5] = mouse, strain B6AKF1, males, oral dosing, site: liver, lesion: hepatoma, dosed 76 weeks, study length 76 weeks
# [6] = mouse, strain B6AKF1, males, oral dosing, site: lung, lesion: adenoma, dosed 76 weeks, study length 76 weeks
# [7] = mouse, strain B6C3F1, females, oral dosing, site: liver, lesion: hepatoma, dosed 76 weeks, study length 76 weeks
# [8] = mouse, strain B6C3F1, males, oral dosing, site: any site (literature study), lesion: several types, types named in the paper, dosed 76 weeks, study length 76 weeks
# [9] = mouse, strain B6C3F1, males, oral dosing, site: liver, lesion: hepatoma, dosed 76 weeks, study length 76 weeks
smiles,measurement,setting,value
C#C[C@]1(OC(C)=O)CC[C@H]2[C@@H]3CCC4=CC(=O)CC[C@@H]4[C@H]3CC[C@@]21C (tested in a mixture with another compound),carcinogen call,"monkey, strain Rhesus [Macaca mulatta], females, in feed, site: pancreatic duct, lesion: adenoma, dosed 391 weeks, study length 521 weeks",negative (inactive)
same,TD50,"monkey, strain Rhesus [Macaca mulatta], females, in feed, site: skin, lesion: papilloma, dosed 391 weeks, study length 521 weeks",10.1 mg/kg/day (inactive)
same,TD50,"monkey, strain Rhesus [Macaca mulatta], females, in feed, site: uterus, lesion: leiomyoma, dosed 391 weeks, study length 521 weeks",6.42 mg/kg/day (inactive)
same,carcinogen call,"mouse, strain C57L/He x 129/Rr x C3HeB/De x SWR/Ly, females, by gavage, site: any site (literature study), lesion: several types, types named in the paper, dosed 69 weeks, study length 69 weeks",negative (inactive)
same,carcinogen call,"mouse, strain C57L/He x 129/Rr x C3HeB/De x SWR/Ly, females, by gavage, site: any site (literature study), lesion: several types, types named in the paper, dosed 69 weeks, study length 82 weeks",negative (inactive)
same,carcinogen call,"mouse, strain C57L/He x 129/Rr x C3HeB/De x SWR/Ly, females, by gavage, site: lung, lesion: one or several types, types not named, dosed 69 weeks, study length 69 weeks",negative (inactive)
same,TD50,"mouse, strain C57L, females, by gavage, site: pituitary gland, lesion: one or several types, types not named, dosed 89 weeks, study length 89 weeks",1.34 mg/kg/day
same,TD50,"rat, strain Sprague-Dawley albino, both sexes, in feed, site: any site (literature study), lesion: several types, types named in the paper, dosed 104 weeks, study length 104 weeks",14.2 mg/kg/day
same,TD50,"rat, strain Sprague-Dawley albino, both sexes, in feed, site: liver, lesion: hepatocellular adenoma, dosed 104 weeks, study length 104 weeks",7.59 mg/kg/day
same,TD50,"rat, strain Sprague-Dawley albino, both sexes, in feed, site: liver, lesion: hyperplastic nodule, dosed 104 weeks, study length 104 weeks",1.94 mg/kg/day
same,TD50,"rat, strain Sprague-Dawley albino, both sexes, in feed, site: mammary gland, lesion: adenocarcinoma, dosed 104 weeks, study length 104 weeks",76.8 mg/kg/day
same,TD50,"rat, strain Sprague-Dawley albino, both sexes, in feed, site: mammary gland, lesion: adenoma, dosed 104 weeks, study length 104 weeks",14.8 mg/kg/day
same,TD50,"rat, strain Sprague-Dawley albino, both sexes, in feed, site: mammary gland, lesion: fibroepithelial tumor, dosed 104 weeks, study length 104 weeks",21 mg/kg/day
same,TD50,"rat, strain Sprague-Dawley albino, both sexes, in feed, site: mammary gland, lesion: several types, types named in the paper, dosed 104 weeks, study length 104 weeks",6.66 mg/kg/day
same,TD50,"rat, strain Sprague-Dawley albino, both sexes, in feed, site: pituitary gland, lesion: chromophobe adenoma, dosed 104 weeks, study length 104 weeks",5.31 mg/kg/day
same,TD50,"rat, strain Sprague-Dawley albino, both sexes, in feed, site: uterus, lesion: adenomatous endometrial polyp, dosed 104 weeks, study length 104 weeks",27.4 mg/kg/day
CC1CCC(C(C)C)C(O)C1 (stereo unspecified),carcinogen call,"mouse, strain B6C3F1, females, in feed, site: any site (literature study), lesion: several types, types named in the paper, dosed 103 weeks, study length 104 weeks",negative (inactive)
same,TD50,"mouse, strain B6C3F1, females, in feed, site: liver, lesion: hepatocellular adenoma + hepatocellular carcinoma + neoplastic nodule, dosed 103 weeks, study length 104 weeks",5190 mg/kg/day
same,TD50,"mouse, strain B6C3F1, females, in feed, site: lung, lesion: alveolar/bronchiolar adenoma + alveolar/bronchiolar carcinoma, dosed 103 weeks, study length 104 weeks",3170 mg/kg/day
same,TD50,"mouse, strain B6C3F1, males, in feed, site: any site (literature study), lesion: several types, types named in the paper, dosed 103 weeks, study length 104 weeks",2750 mg/kg/day (inactive)
same,TD50,"mouse, strain B6C3F1, males, in feed, site: liver, lesion: hepatocellular adenoma + hepatocellular carcinoma + neoplastic nodule, dosed 103 weeks, study length 104 weeks",1960 mg/kg/day
same,carcinogen call,"rat, strain Fischer 344, females, in feed, site: any site (literature study), lesion: several types, types named in the paper, dosed 103 weeks, study length 105 weeks",negative (inactive)
same,TD50,"rat, strain Fischer 344, males, in feed, site: any site (literature study), lesion: several types, types named in the paper, dosed 103 weeks, study length 105 weeks",1410 mg/kg/day (inactive)
same,TD50,"rat, strain Fischer 344, males, in feed, site: liver, lesion: hepatocellular adenoma + hepatocellular carcinoma + neoplastic nodule, dosed 103 weeks, study length 105 weeks",5690 mg/kg/day
C=CCN(CC(C)=O)N=O,TD50,"hamster, strain Syrian Golden, females, by gavage, site: liver, lesion: cholangiocarcinoma, dosed 40 weeks, study length 55 weeks",21.2 mg/kg/day
same,TD50,"hamster, strain Syrian Golden, females, by gavage, site: liver, lesion: hepatocellular adenoma, dosed 40 weeks, study length 55 weeks",4.87 mg/kg/day
same,TD50,"hamster, strain Syrian Golden, females, by gavage, site: liver, lesion: several types, types named in the paper, dosed 40 weeks, study length 55 weeks",3.78 mg/kg/day
same,TD50,"hamster, strain Syrian Golden, females, by gavage, site: nasal mucosa, lesion: carcinoma, dosed 40 weeks, study length 55 weeks",1.36 mg/kg/day
same,TD50,"hamster, strain Syrian Golden, females, by gavage, site: nasal mucosa, lesion: several types, types named in the paper, dosed 40 weeks, study length 55 weeks",1.19 mg/kg/day
same,TD50,"rat, strain Fischer 344, females, in drinking water, site: esophagus, lesion: several types, types named in the paper, dosed 50 weeks, study length 85 weeks",1.25 mg/kg/day
same,TD50,"rat, strain Fischer 344, females, in drinking water, site: liver, lesion: hepatocellular carcinoma, dosed 50 weeks, study length 85 weeks",0.335 mg/kg/day
NC(=O)Cc1c([O-])on[n+]1Cc1ccccc1,TD50,"mouse, strain DDD, females, in drinking water, site: liver, lesion: hepatocellular adenoma, dosed 52 weeks, study length 52 weeks",10.2 mg/kg/day
same,TD50,"mouse, strain DDD, females, in drinking water, site: liver, lesion: hepatocellular carcinoma, dosed 52 weeks, study length 52 weeks",22.6 mg/kg/day
same,TD50,"mouse, strain DDD, females, in drinking water, site: liver, lesion: several types, types named in the paper, dosed 52 weeks, study length 52 weeks",10.2 mg/kg/day
same,TD50,"mouse, strain DDD, females, in drinking water, site: lung, lesion: adenoma, dosed 52 weeks, study length 52 weeks",31.4 mg/kg/day
same,TD50,"rat, strain Donryu, males, in drinking water, site: liver, lesion: hepatocellular carcinoma, dosed 41 weeks, study length 91 weeks",4.24 mg/kg/day
same,TD50,"rat, strain Donryu, males, in drinking water, site: liver, lesion: neoplastic nodule, dosed 41 weeks, study length 91 weeks",15.1 mg/kg/day
same,TD50,"rat, strain Donryu, males, in drinking water, site: liver, lesion: several types, types named in the paper, dosed 41 weeks, study length 91 weeks",4.24 mg/kg/day
same,carcinogen call,"rat, strain Donryu, males, in feed, site: liver, lesion: one or several types, types not named, dosed 104 weeks, study length 104 weeks",negative (inactive)
CS(=O)(=O)OCCCNCCCOS(C)(=O)=O,TD50,"mouse, strain B6C3F1, females, i.p., site: any site (literature study), lesion: several types, types named in the paper, dosed 52 weeks, study length 86 weeks",1.17 mg/kg/day (inactive)
same,TD50,"mouse, strain B6C3F1, females, i.p., site: lung, lesion: alveolar/bronchiolar adenoma + alveolar/bronchiolar carcinoma, dosed 52 weeks, study length 86 weeks",6.88 mg/kg/day
same,TD50,"mouse, strain B6C3F1, males, i.p., site: all sites, lesion: lymphoma, dosed 52 weeks, study length 78 weeks",37.7 mg/kg/day (inactive)
same,TD50,"mouse, strain B6C3F1, males, i.p., site: any site (literature study), lesion: several types, types named in the paper, dosed 52 weeks, study length 78 weeks",2.07 mg/kg/day
same,TD50,"rat, strain Sprague-Dawley, females, i.p., site: any site (literature study), lesion: several types, types named in the paper, dosed 36 weeks, study length 80 weeks",0.616 mg/kg/day
same,TD50,"rat, strain Sprague-Dawley, females, i.p., site: liver, lesion: hepatocellular adenoma + hepatocellular carcinoma + neoplastic nodule, dosed 36 weeks, study length 80 weeks",5.01 mg/kg/day
same,TD50,"rat, strain Sprague-Dawley, females, i.p., site: peritoneum, lesion: fibrosarcoma + sarcoma, NOS, dosed 36 weeks, study length 80 weeks",2.74 mg/kg/day
same,TD50,"rat, strain Sprague-Dawley, males, i.p., site: any site (literature study), lesion: several types, types named in the paper, dosed 36 weeks, study length 80 weeks",1.3 mg/kg/day
same,TD50,"rat, strain Sprague-Dawley, males, i.p., site: peritoneum, lesion: fibrosarcoma + fibroma + sarcoma, NOS, dosed 36 weeks, study length 80 weeks",0.915 mg/kg/day
O=C1C(c2[nH]c3ccc(S(=O)(=O)O)cc3c2O)=Nc2ccc(S(=O)(=O)O)cc21,carcinogen call,"mouse, strain Charles River CD1, females, in feed, site: liver, lesion: nodular hyperplasia, dosed 84 weeks, study length 84 weeks",negative (inactive)
same,carcinogen call,"mouse, strain Charles River CD1, females, in feed, site: lung, lesion: adenoma, dosed 84 weeks, study length 84 weeks",negative (inactive)
same,TD50,"mouse, strain Charles River CD1, males, in feed, site: liver, lesion: nodular hyperplasia, dosed 84 weeks, study length 84 weeks",20200 mg/kg/day (inactive)
same,carcinogen call,"mouse, strain Charles River CD1, males, in feed, site: lung, lesion: adenoma, dosed 84 weeks, study length 84 weeks",negative (inactive)
same,TD50,"mouse, strain Charles River CD (Sprague-Dawley), females, in feed, site: any site (literature study), lesion: malignant tumor, dosed 100 weeks, study length 100 weeks",33900 mg/kg/day (inactive)
same,carcinogen call,"mouse, strain Charles River CD (Sprague-Dawley), females, in feed, site: any site (literature study), lesion: several types, types named in the paper, dosed 100 weeks, study length 100 weeks",negative (inactive)
same,TD50,"mouse, strain Charles River CD (Sprague-Dawley), males, in feed, site: any site (literature study), lesion: malignant tumor, dosed 95 weeks, study length 95 weeks",57100 mg/kg/day (inactive)
same,TD50,"mouse, strain Charles River CD (Sprague-Dawley), males, in feed, site: any site (literature study), lesion: several types, types named in the paper, dosed 95 weeks, study length 95 weeks",23400 mg/kg/day (inactive)
same,TD50,"rat, strain Osborne-Mendel, both sexes, in feed, site: any site (literature study), lesion: several types, types named in the paper, dosed 104 weeks, study length 104 weeks",5430 mg/kg/day (inactive)
O=C(O)Cc1c[nH]c2ccccc12,carcinogen call,[1],negative (inactive)
same,carcinogen call,[2],negative (inactive)
same,carcinogen call,[3],negative (inactive)
same,carcinogen call,[4],negative (inactive)
same,carcinogen call,[5],negative (inactive)
same,carcinogen call,[6],negative (inactive)
same,TD50,"mouse, strain B6C3F1, females, oral dosing, site: any site (literature study), lesion: several types, types named in the paper, dosed 76 weeks, study length 76 weeks",538 mg/kg/day (inactive)
same,carcinogen call,[7],negative (inactive)
same,TD50,"mouse, strain B6C3F1, females, oral dosing, site: lung, lesion: adenoma, dosed 76 weeks, study length 76 weeks",538 mg/kg/day (inactive)
same,TD50,[8],40.3 mg/kg/day (inactive)
same,TD50,[9],113 mg/kg/day (inactive)
same,TD50,"mouse, strain B6C3F1, males, oral dosing, site: lung, lesion: adenoma, dosed 76 weeks, study length 76 weeks",500 mg/kg/day (inactive)
CC(=O)C1C(=O)C=C(C)OC1=O (stereo unspecified),carcinogen call,[1],negative (inactive)
same,carcinogen call,[2],negative (inactive)
same,carcinogen call,[3],negative (inactive)
same,carcinogen call,[4],negative (inactive)
same,carcinogen call,[5],negative (inactive)
same,carcinogen call,[6],negative (inactive)
same,carcinogen call,"mouse, strain B6C3F1, females, oral dosing, site: any site (literature study), lesion: one or several types, types not named, dosed 76 weeks, study length 76 weeks",negative (inactive)
same,carcinogen call,[7],negative (inactive)
same,carcinogen call,"mouse, strain B6C3F1, females, oral dosing, site: lung, lesion: several types, types named in the paper, dosed 76 weeks, study length 76 weeks",negative (inactive)
same,TD50,[8],202 mg/kg/day (inactive)
same,carcinogen call,[9],negative (inactive)
same,carcinogen call,"mouse, strain B6C3F1, males, oral dosing, site: lung, lesion: several types, types named in the paper, dosed 76 weeks, study length 76 weeks",negative (inactive)
